Measurements published in US12152038B2, “Vasopressin receptor antagonists and products and methods related thereto” (Neumora Therapeutics, Inc., priority 2017, dated 2024).

How the values were obtained:
[1] = biological target: T1, human Arginine Vasopressin Receptor V2 (AVPR2) (Homo sapiens, UniProt P30518); assay: Vasopressin V2 receptor antagonist assay (TR-FRET cAMP, 1321N1 cells); assay type: cell-based
T1 construct: host or cells: 1321N1 (cAMPZen V2 assay ready frozen cells)
Procedure: The purpose of the assay was to determine the inhibitory effect of synthesized compounds on the Vasopressin receptor 2. The assay was performed in commercially available 1321N1 cells expressing the human Arginine Vasopressin Receptor V2 (AVPR2) (Perkin Elmer #ES-363-CF). Arginine Vasopressin (AVP) evokes an increase in intracellular cAMP in these cells which is measured in a TR-FRET assay using a Europium cAMP tracer and ULight labelled antibody reagents contained in a LANCE Ultra cAMP kit (Perkin Elmer #TRF0263). Increases in cAMP in the assay result in a reduction in TR-FRET as the cAMP produced by the stimulated cells competes with the Eu-cAMP tracer for binding sites on the ULight labelled antibody. Test compounds were assessed for their ability to affect the magnitude of the response to AVP, with antagonists showing a concentration-dependent decrease in the AVP-mediated reduction in TR-FRET signal.
cAMPZen V2 assay ready cells were thawed at 37° C. and resuspended directly from frozen in 9 ml growth medium consisting of DMEM supplemented with 10% v/v fetal bovine serum, 1× non-essential amino acids, and 1 mM sodium pyruvate. Cells were spun at 1000 rpm for 3 minutes and the supernatant was carefully removed and discarded. The pellet was resuspended in 5 ml stimulation buffer and the cell density determined using the Vi-Cell automated cell counter. The cell suspension was diluted to a 0.2×10^6/ml suspension ready for plating. To all wells of a white 384-well Optiplate (Perkin Elmer #6007299) 5 μL of cells in stimulation buffer were dispensed (1,000 cells per well). Stimulation buffer consisted of HBSS (+Ca/+Mg) supplemented with 5 mM HEPES, 0.1% BSA stabiliser and 0.5 mM IBMX.
At the start of each assay day the potency of AVP was assessed and an EC80 concentration determined for subsequent compound profiling. Assays were performed by first an addition of 2.5 μl of control or test compound at 4× final concentration in stimulation buffer followed by 2.5 μl of AVP at 4× final concentration in stimulation buffer. After a 1 hour reaction, detection reagents were added by first an addition of 5 μl EU-cAMP tracer, followed by 5 μl ULight-anti-cAMP both diluted as per the manufacturer's instructions. After a one hour incubation, plates were ready to be read (signals then remained stable for up to 24 hours). Changes in time resolved fluorescence were monitored with excitation via a laser (337 nm) measuring both 615 nm and 665 nm emission wavelengths. […] For compound profiling, test compounds were dispensed by the Labcyte Echo (10-point curve, 1:3 dilutions) in a target 0.1 μl volume then diluted 750-fold in stimulation buffer containing 3% DMSO prior to addition to the cells. At the end of the incubation period, 2.5 μl of AVP in stimulation buffer was added at the previously determined EC80 concentration.
In-plate controls for the assay included a Tolvaptan concentration-response curve as the reference V2 antagonist and an AVP concentration-response curve to confirm the reproducibility of the EC80 used for the compound challenge.

[2] = biological target: T2, human Oxytocin Receptor (hOTR) (Homo sapiens, UniProt P30559); assay: Oxytocin receptor (OTR) antagonist assay (FLIPR calcium, CHEM-1-hOTR cells); assay type: cell-based
T2 construct: host or cells: CHEM-1 (ready-to-assay frozen cells)
T2 sequence (P30559 1-389): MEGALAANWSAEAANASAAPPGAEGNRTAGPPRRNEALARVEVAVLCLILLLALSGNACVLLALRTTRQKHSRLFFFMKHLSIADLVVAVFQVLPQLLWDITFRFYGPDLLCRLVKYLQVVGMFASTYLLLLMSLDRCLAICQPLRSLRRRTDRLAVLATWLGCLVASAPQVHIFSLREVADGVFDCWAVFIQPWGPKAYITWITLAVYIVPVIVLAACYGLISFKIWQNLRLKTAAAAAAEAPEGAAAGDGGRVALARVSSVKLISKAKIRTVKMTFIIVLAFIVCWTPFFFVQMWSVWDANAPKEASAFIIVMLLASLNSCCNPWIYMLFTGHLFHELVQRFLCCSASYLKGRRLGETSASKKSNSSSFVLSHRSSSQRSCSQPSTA
Procedure: This assay was performed in CHEM-1 cells expressing the human Oxytocin Receptor (hOTR) to determine the inhibitory effect of the compounds of the invention on the human Oxytocin receptor. Oxytocin evokes an increase in intracellular calcium in CHEM-1-hOTR cells which is measured in a fluorescence assay on the FLIPR^TETRA using calcium sensitive dyes. Test compounds were assessed for their ability to affect the magnitude of the response to oxytocin, with antagonists showing a concentration-dependent reduction in the oxytocin-mediated fluorescence.
CHEM-1-hOTR ready was used to assay frozen cells (Eurofins #HTS09ORTA) which are supplied with a proprietary Media Component.
Day 1 of the assay: Cells were thawed in a 37° C. water bath and diluted with the supplied Media Component to a final volume of 10 ml. The cell suspension was centrifuged at 1000 rpm for 3 min at room temperature and the supernatant was discarded. The cell pellet was resuspended in Media Component (10.5 ml) and the cells (25 μL) were dispensed into a poly-D-lysine coated black, clear bottomed, 384-well plate. The plates were incubated overnight at 37° C., 5% CO2.
Day 2: At the start of each assay day the potency of oxytocin was assessed and an EC80 concentration was determined for subsequent compound profiling. Assays were performed using a two-step addition protocol on the FLIPR^TETRA; first addition of 5 μl of control or test compound at 10× final in assay buffer with 15 min incubation at 37° C., 5% CO2 followed by 10 μl of oxytocin at 6× final concentration in assay buffer. Changes in fluorescence were monitored for 3 min after both additions on the FLIPR^TETRA using 470-495 nm excitation and 515-575 nm emission wavelengths. The assay buffer consisted of HBSS (+Ca/+Mg) supplemented with 20 mM HEPES, and for the preparation of the oxytocin agonist only, 0.1% w/v bovine serum albumin. The assay was initiated by the removal of growth media from the cells and replaced with 45 μl of Calcium-6 dye (Molecular Devices) prepared at 1× in assay buffer. Cells were loaded with dye for 60-90 min at 37° C., 5% CO2 before initiation of the FLIPR^TETRA protocol. […] For compound profiling, test compounds were first serially diluted in DMSO (10-point curve, 1:3 dilutions) then diluted 33.3-fold in assay buffer prior to addition to the dye loaded cells on the FLIPR^TETRA. At the end of the incubation period 10 μl of oxytocin in assay buffer containing 0.1% BSA was added at the previously determined EC80 concentration.
In-plate controls for the assay included a L-368,899 concentration-response curve as the reference OTR antagonist and an oxytocin concentration-response curve to confirm the reproducibility of the EC80 used for the compound challenge.

T1 sequence (P30518 whole entry): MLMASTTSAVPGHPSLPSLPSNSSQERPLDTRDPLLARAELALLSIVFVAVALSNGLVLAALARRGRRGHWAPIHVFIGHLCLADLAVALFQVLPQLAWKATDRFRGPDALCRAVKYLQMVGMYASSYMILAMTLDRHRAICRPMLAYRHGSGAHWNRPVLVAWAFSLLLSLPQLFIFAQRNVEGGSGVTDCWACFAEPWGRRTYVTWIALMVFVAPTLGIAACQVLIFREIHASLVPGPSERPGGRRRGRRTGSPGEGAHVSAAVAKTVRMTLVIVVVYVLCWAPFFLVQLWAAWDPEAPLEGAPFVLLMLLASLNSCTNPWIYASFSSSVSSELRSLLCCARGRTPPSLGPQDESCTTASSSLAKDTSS

IC50 [1] [nM] | IC50 [2] [nM] | Structure (SMILES)
500 to 1000 | ≥ 1000 | CC1COc2cc(F)ccc2N1C(=O)N1CC2(C1)CN(c1noc3ccccc13)C2 (single isomer, unassigned) [4-3-B]
< 100 | < 100 | Cc1ccnc(N2CC3(CN(C(=O)N4c5ccc(Cl)cc5OCC4C)C3)C2)n1 (single isomer, unassigned) [20-12-B]
100 to 500 | 100 to 500 | CC1COc2cc(F)ccc2N1C(=O)N1CC2(C1)CN(c1ccc(F)cn1)C2 (single isomer, unassigned) [12-1-B]
≥ 1000 | 100 to 500 | CC1COc2cc(Cl)ccc2N1C(=O)N1CC2(C1)CN(c1cccnn1)C2 (single isomer, unassigned) [9-1-B]
< 100 | 100 to 500 | Cc1cnc(N2CC3(CN(C(=O)N4c5ccc(Cl)cc5OCC4C)C3)C2)cn1 (single isomer, unassigned) [20-5-B]
≥ 1000 | ≥ 1000 | CC1COc2cc(F)c(F)cc2N1C(=O)N1CC2(C1)CN(c1ncccn1)C2 (single isomer, unassigned) [19-1-B]
≥ 1000 | 100 to 500 | CC1COc2cc(Cl)c(F)cc2N1C(=O)N1CC2(C1)CN(c1cccnc1)C2 (stereo not drawn) [19-6]
≥ 1000 | ≥ 1000 | O=C(N1CC2(C1)CN(c1ccc(F)cn1)C2)N1CCC(O)c2cc(Cl)ccc21 (single isomer, unassigned) [13-1-A]
≥ 1000 | 500 to 1000 | O=C(N1CC2(C1)CN(c1ccccn1)C2)N1CCC(O)c2cc(Cl)ccc21 (single isomer, unassigned) [13-2-B]
< 100 | 100 to 500 | Cc1cncc(N2CC3(CN(C(=O)N4c5ccc(F)cc5OCC4C)C3)C2)n1 (single isomer, unassigned) [20-2-B]
< 100 | < 100 | CC1COc2cc(Cl)ccc2N1C(=O)N1CC2(C1)CN(c1cc(C#N)ccn1)C2 (single isomer, unassigned) [20-6-B]

The next lines start with the molecule.

Structure (SMILES) | IC50 [1] [nM] | IC50 [2] [nM]
COc1ccnc(N2CC3(CN(C(=O)N4c5ccc(Cl)cc5OCC4C)C3)C2)n1 (single isomer, unassigned) [20-9-B] | 100 to 500 | 500 to 1000
CC1COc2cc(Cl)ccc2N1C(=O)N1CC2(C1)CN(c1noc3cccnc13)C2 (single isomer, unassigned) [18-3-B] | 100 to 500 | ≥ 1000
CC1COc2cc(Cl)ccc2N1C(=O)N1CC2(C1)CN(c1cc(C#N)ccn1)C2 (stereo not drawn) [20-6] | < 100 | < 100
CC1COc2cc(Cl)c(F)cc2N1C(=O)N1CC2(C1)CN(c1cccnn1)C2 (stereo not drawn) [19-4] | ≥ 1000 | 100 to 500
O=C(N1CC2(C1)CN(c1cccc(F)n1)C2)N1CCc2cc(Cl)ccc21 [1-78] | ≥ 1000 | ≥ 1000
Cc1nc(N2CC3(CN(C(=O)N4c5ccc(Cl)cc5OCC4C)C3)C2)ncc1F (single isomer, unassigned) [20-7-B] | < 100 | 100 to 500
COc1ccnc(N2CC3(CN(C(=O)N4c5ccc(Cl)cc5OCC4C)C3)C2)n1 (stereo not drawn) [20-9] | 100 to 500 | 100 to 500
Cc1nccnc1N1CC2(CN(C(=O)N3c4ccc(Cl)cc4OCC3C)C2)C1 (single isomer, unassigned) [20-10-A] | 100 to 500 | 100 to 500
O=C(N1CC2(C1)CN(c1ccccn1)C2)N1CCC(O)c2cc(Cl)ccc21 (single isomer, unassigned) [13-2-A] | ≥ 1000 | 500 to 1000
CC1COc2cc(Cl)ccc2N1C(=O)N1CC2(C1)CN(c1ncccn1)C2 (single isomer, unassigned) [1-83-B, (7-chloro-3-methyl-2,3-dihydro-4H-benzo[b][1,4]oxazin-4-yl)(6-(pyrimidin-2-yl)-2,6-diazaspiro[3.3]heptan-2-yl)methanone] | ≥ 1000 | 100 to 500
